From patent US9707267B2, “Beta-turn peptidomimetic cyclic compounds for treating dry eye” (Mimetogen Pharmaceuticals, Inc., priority 2008, dated 2017) come the findings set out here.

For experiment [1], the system named is rat conjunctival goblet cells. Briefly: Glycoconjugate secretion from rat conjunctival goblet cells, ELLA (Example 1). The settings on record: 2 hours, mean±sem. The experiment is classed as cell-based. As for the experimental part: Cells derived from the explants were grown in RPMI 1640 supplemented with 10% fetal bovine serum (FBS) and penicillin (100 U/mL)/streptomycin (100 μg/mL) at 37° C. in a humidified 5% CO2-atmosphere for seventy-two hours. Contaminating nongoblet cells were removed by scraping them from the plate. During this time, goblet cells migrated from the pieces and began to proliferate. After one week, the goblet cells were trypsinized and plated in twenty-four well culture plates with RPMI-1640 media supplemented with 10% FBS.
To measure glycoconjugate secretion, the conjunctival goblet cells were grown to confluence and were serum deprived for two hours before addition of nerve growth factor (NGF), carbachol (Cch), compound D3, compound 3Aa and compound 3Ak for two hours. Compounds D3, 3Aa and 3Ak were administered at concentrations of 30 μm (micromolar), 10 μM, 1 μM and 0.3 μM. The vehicle used to dissolve the compounds, dimethyl sulfoxide (DMSO) was also included. DMSO was used as the basal control for the 30 μM concentration of compound, which was at 0.1% (v/v). The cholinergic agonist carbachol (Cch), added at 100 μM (micromolar), was a positive control for glycoconjugate secretion. The amount of glycoconjugate secreted into the media was measured by enzyme-linked lectin assay (ELLA). The media were collected and analyzed for amount of the lectin-detectable glycoconjugates, including mucins. The amount of secretion was measured by using the lectin UEA-I which is specific for rat conjunctival goblet cell mucins. Biotinylated UEA-I lectin and alkaline phosphatase-labeled streptavidin were used as described in Rios, J. D., et al., “Role of Neurotrophins and Neurotrophin Receptors in Rat Conjunctival Goblet Cell Secretion and Proliferation, Ophthalmology & Visual Science, 48: 1543-1551 (2007), the entire content of which is incorporated herein by reference. The cells were removed and sonicated, and the cell homogenate was analyzed for the total amount of protein by using the Bradford protein assay. […] Glycoconjugate secretion was expressed as the increase (x-fold) over basal.
Data for CGC glycoconjugate secretion and proliferation were expressed as the increase (x-fold) above basal value, which was standardized to 1.0. For example, for the 0.3 μM (micromolar), 1 μM and 10 μM doses, the CGC glycoconjugate secretion and proliferation were expressed as test compound over untreated cells. For the 30 μM dose, the CGC glycoconjugate secretion and proliferation were expressed as test compound over DMSO untreated cells. Results are expressed as the mean±sem.

The next experiment concerns p42/44 MAPK. Briefly: Activation of p42/44 MAPK in goblet cells, Western blot (Example 2). The conditions noted are these: 100 nM, 5 minutes, positive control. The experiment is classed as cell-based, rat. Here is the method:
The activation of p42/44 MAPK was examined using Western blot techniques. Goblet cells were serum starved in serum-free RPMI for 4-6 hrs prior to the addition of PMA (100 nM), NGF (1 or 10 nM), or MIM-D3 (10 or 50 μM) for 5 minutes at 37° C. After, cells were rinsed once in cold PBS, scraped in 100 μL of 1×SDS-PAGE sample buffer [62.5 mM Tris-HCl pH 6.8, 10% glycerol, 2% SDS, 5% β-mercaptoethanol, 0.02 mg/mL bromophenol blue] and sonicated for 20 minutes. The homogenates were centrifuged at 14,900 g for 15 min at 4° C. Proteins in a […] of the supernatant were separated by SDS-PAGE (8% acrylamide gels) and transferred to nitrocellulose membranes. The membranes were blocked for 2 hours in 5% non-fat dried milk in buffer containing 20 mM Tris-HCl, pH 8.0, 150 mM NaCl, and 0.01% Tween-20 (TBST). The blots were then probed with an antibody directed against the phosphorylated form of MAPK1/2 (Calbiochem, San Diego, Calif.) at 0.1 μg/mL in TBST containing 5% BSA overnight at 4° C., followed by a 1 hour incubation in HRP-conjugated secondary anti-mouse antibody (Sigma, St. Louis, Mo.) at room temperature in TBST containing 5% non-fat dried milk. Immunoreactive bands were visualized using the enhanced chemiluminescence method (Perkin Elmer, Waltham, Mass.). The blots were stripped at 55° C. for 30 minutes in stripping buffer [62.5 mM Tris-HCl pH 6.8, 2% SDS, 0.1M β-mercaptoethanol] followed by re-probing with an antibody directed against actin (1:5000 dilution, Sigma, St. Louis, Mo.) in TBST containing 5% non-fat dried milk and incubation in HRP-conjugated secondary anti-rabbit antibody. The immunoreactive bands were digitally scanned on an EPSON scanner and analyzed using NIH ImageJ v1.38x. The amount of phosphorylated MAPK in each sample was standardized to the amount of total actin protein in the sample.
To determine if compound D3 and NGF induced glycoconjugates secretion via activation of the MAPK pathway, cultured goblet cells from 3 independent rats were stimulated by 10 and 50 μM compound D3, 1 and 10 nM NGF or PMA (100 nM, the positive control) for 5 minutes and MAPK activity was measured by western blot analysis. A representative western blot from 3 independent rat goblet cell cultures is shown in FIG. 9, and the quantification is shown in FIG. 10. There was a statistically significant effect of treatment on MAPK activation (P<0.0001). Compound D3 increased MAPK activity above basal by 2.5±0.3 fold at 10 μM and 2.2±0.5 fold at 50 μM and NGF increased MAPK activity by 2.8±0.5 at 1 nM (P<0.05) and 1.7±0.2 at 10 nM.

Experiment [2] has as its system cultured rat conjunctival goblet cells. The experiment in a line: Goblet cell glycoconjugate secretion, ELLA with UEA-1 (Example 2). The experiment is classed as cell-based. The settings on record: 2 hours; for Glycoconjugate Secretion, Mean ± sem: mean of rats; for Glycoconjugate Secretion, Mean ± SD: mean of rats/plates. Here is the method: The culturing of conjunctival goblet cells from explant cultures was as previously described in Shatos, M. et al., “Isolation, Characterization, and Propagation of Rat Conjunctival Goblet Cells In Vitro,” IOVS 42:1455-1464 (2001), the entire content of which is incorporated herein by reference. The tissue was finely minced and individual pieces were anchored onto scored 6-well cultures dishes in 0.5 mL of complete RPMI-1640 (supplemented with 10% FBS, 2 mM glutamine and 100 μg/mL penicillin-streptomycin) and incubated at 37° C. in a humidified 5% CO2-atmosphere. Explant cultures were refed every 2 days. Within a few days, goblet cells migrated from the pieces and began to proliferate. After approximately one week, the tissue plugs were removed and the goblet cells were allowed to grow to confluence. Cells were passaged once by trypsinization of adherent cells with 0.05% trypsin-0.53 mM EDTA (pH 7.4), and plated in 8-well Laboratory Tek chamber slides (histochemistry) or in 96 well (proliferation), 24 well (secretion), or 6 well (western blots) culture plates with complete RPMI-1640 media.
To measure cell secretion, goblet cells were grown to confluence and then serum depleted for 2 hours prior to stimulation. Cells were incubated with compound D3 at 2, 10, and 50 μM, NGF at 0.1, 1 and 10 nM, and PMA at 0.1, 1, and 10 nM in serum-free RPMI for 2 hours. Goblet cell secretion was measured using an enzyme-linked lectin assay (ELLA). Briefly, an aliquot of the cell culture supernatant was transferred to a 96-well polystyrene microtiter plate in triplicate (Corning Life Sciences #2592, Fisher Scientific, Nepean, Ont). A dilution series of bovine submaxillary mucin (BSM) (Sigma, St. Louis, Mo.) was included on each plate as the standard (standard curve data and data showing that detection of BSM is linear between 0.003 and 0.1 μg not shown). The plates were coated by evaporation at 37° C. overnight. After, the plates were washed three times with wash buffer [PBS containing 0.3% BSA, 0.05% Tween-20] then blocked for nonspecific binding with PBS containing 3% BSA and 0.05% Tween-20 at 37° C. for 1 hour. The wells were rinsed three times in wash buffer, and then incubated in 2 μg/mL biotinylated UEA-1 diluted in wash buffer (Vector Labs, Burlingame, Calif.) at 37° C. for 1 hour. The wells were rinsed three times in wash buffer, and then incubated in 1 μg/mL HRP-conjugated neutravidin diluted in wash buffer (Pierce, Rockford, Ill.) at 37° C. for 1 hour. After the wells were rinsed three times in wash buffer, the color development was performed with TMB (Promega, Madison, Wis.) and stopped with 0.5N Sulfuric acid. The absorbance was read at 450 nm on a Benchmark Plus (Biorad). The goblet cells remaining in the culture wells were either scraped in RIPA buffer [1% TritonX-100, 20 mM Tris-HCl pH 7.5, 150 mM NaCl, 1.5 mM MgCl2, 1% Na deoxycholate, 1 mM EGTA, 1 mM EDTA, 0.1% SDS, 10% glycerol, 1 mM Na vanadate, 10 mM Na fluoride, 10 mM Na pyrophosphate, complete mini EDTA-free protease inhibitors (Roche Applied Science, Indianapolis, Ind.)] or 1M Tris-buffer (pH 7.5), collected and sonicated. The amount of protein in the cell homogenate was analyzed using the Bradford protein assay kit using a dilution series of bovine serum albumin (BSA) as the standard (BioRad, Montreal, PQ). Glycoconjugate secretion was normalized to total protein in the homogenate. Data was then expressed as fold increase above basal. […]

Molecules are shown by their SMILES.

In experiment [1] (100 μM, positive control), `C[N+](C)(C)CCOC(N)=O` [Cch, carbachol, reference compound] gave a CGC glycoconjugate secretion of 1.3±0.3 fold above basal.
Take `CC[C@H](C)[C@@H]1NC(=O)c2cc(N)ccc2OCc2ccc(C(N)=O)cc2NC(=O)[C@H](CCCCN)NC1=O` [Compound 3Aa]: the CGC glycoconjugate secretion is given as 2.1±0.3 fold above basal in experiment [1] (0.3 μM); 1.6±0.3 fold above basal in experiment [1] (1 μM); 1.7±0.4 fold above basal in experiment [1] (10 μM); 2.1±0.7 fold above basal in experiment [1] (30 μM, over DMSO basal).
For the compound `N=C(N)NCCC[C@@H]1NC(=O)c2cc(N)ccc2OCc2ccc(C(N)=O)cc2NC(=O)CNC1=O` [Compound 3Ak], the CGC glycoconjugate secretion was found to be 1.4±0.3 fold above basal in experiment [1] (0.3 μM); 1.1±0.3 fold above basal in experiment [1] (1 μM); 1.2±0.1 fold above basal in experiment [1] (10 μM); 1.1±0.3 fold above basal in experiment [1] (30 μM, over DMSO basal).
Consider `CCCCCCCCCCCCCC(=O)O[C@@H]1[C@@H](C)[C@@]2(O)[C@@H](C=C(CO)C[C@]3(O)C(=O)C(C)=C[C@@H]23)[C@@H]2C(C)(C)[C@]12OC(C)=O` [PMA, Phorbol-12-myristate-13-acetate, reference compound], for which the “MAPK activity above basal” value in the experiment with p42/44 MAPK amounted to 6.1±0.7 fold. For the same compound, the “Glycoconjugate Secretion” value in experiment [2] (0.1 nM, Rat 2) is 1.39 Fold increase above basal; in experiment [2] (0.1 nM, Rat 2 Plate 2) it was 3.2 μg glycoconjugate/mg total protein; in experiment [2] (0.1 nM, Rat 3), 1.41 Fold increase above basal; in experiment [2] (0.1 nM, Rat 3 Plate 1) it was 6.9 μg glycoconjugate/mg total protein; in experiment [2] (1 nM, Rat 1), 1.05 Fold increase above basal; in experiment [2] (1 nM, Rat 1 Plate 2), 4.1 μg glycoconjugate/mg total protein. The “Glycoconjugate Secretion” value in experiment [2] (1 nM, Rat 2) was 1.78 Fold increase above basal; in experiment [2] (1 nM, Rat 2 Plate 2), 4.1 μg glycoconjugate/mg total protein; in experiment [2] (10 nM, Rat 1), 1.56 Fold increase above basal; in experiment [2] (10 nM, Rat 1 Plate 1) it was 11.3 μg glycoconjugate/mg total protein; in experiment [2] (10 nM, Rat 1 Plate 2) it was 3.5 μg glycoconjugate/mg total protein; in experiment [2] (10 nM, Rat 2), 1.30 Fold increase above basal. In addition, the “Glycoconjugate Secretion” value in experiment [2] (10 nM, Rat 2 Plate 2) is reported as 3.0 μg glycoconjugate/mg total protein; in experiment [2] (10 nM, Rat 3) it was 1.24 Fold increase above basal; in experiment [2] (10 nM, Rat 3 Plate 1) it was 6.1 μg glycoconjugate/mg total protein; in experiment [2] (10 nM, Rat 4) it was 0.85 Fold increase above basal; in experiment [2] (10 nM, Rat 4 Plate 2), 8.4 μg glycoconjugate/mg total protein. Also, the figures for the “Glycoconjugate Secretion, Mean ± sem” value in experiment [2] (0.1 nM), in experiment [2] (1 nM) and in experiment [2] (10 nM) were 1.40 ± 0.01 Fold increase above basal, 1.42 ± 0.37 Fold increase above basal and 1.30 ± 0.25 Fold increase above basal, respectively. Moreover, the “Glycoconjugate Secretion, Mean ± SD” value in experiment [2] (0.1 nM) is reported as 5.1 ± 2.6 μg glycoconjugate/mg total protein; in experiment [2] (1 nM), 4.1 ± 0 μg glycoconjugate/mg total protein; in experiment [2] (10 nM) it was 6.5 ± 3.5 μg glycoconjugate/mg total protein. Further, in experiment [2] (0.1, 1 and 10 nM, not dose-dependent), the “increase in mucin secretion” value is ~1.4 fold.
